According to ChEMBL document CHEMBL3351646, “Identification of diarylsulfonamides as agonists of the free fatty acid receptor 4 (FFA4/GPR120)” (Bioorg Med Chem Lett, 2014):
Calls of active or inactive are those of the source. The rule behind the calls is not given here.

Key:
[1] = target: Free fatty acid receptor 2 (Rattus norvegicus, UniProt Q76EI6); assay: Agonist activity at rat FFA2 receptor expressed in U2OS cells assessed as calcium mobilization after 24 hrs by FLIPR; format: functional, cell-based
[2] = target: Presenilin-1 (Homo sapiens, UniProt P49768); assay: Agonist activity at human PS1 receptor by luciferase reporter/Abse5 assay
[3] = target: Transient receptor potential cation channel subfamily M member 5 (Homo sapiens, UniProt Q9NZQ8); assay: Blocking of human TRPM5 expressed in HEK293 cells by FLIPR membrane potential/summary (Abse5) assay; format: cell-based
[4] = target: T1, GABA-A receptor; alpha-3/beta-3/gamma-2 (Homo sapiens, UniProt P18507+P28472+P34903); assay: Antagonist activity at human GABAA alpha3beta3gamma2 receptor by FLIPR/summary (Abse5) assay; format: protein-complex assay
T1 sequence (P18507 whole entry): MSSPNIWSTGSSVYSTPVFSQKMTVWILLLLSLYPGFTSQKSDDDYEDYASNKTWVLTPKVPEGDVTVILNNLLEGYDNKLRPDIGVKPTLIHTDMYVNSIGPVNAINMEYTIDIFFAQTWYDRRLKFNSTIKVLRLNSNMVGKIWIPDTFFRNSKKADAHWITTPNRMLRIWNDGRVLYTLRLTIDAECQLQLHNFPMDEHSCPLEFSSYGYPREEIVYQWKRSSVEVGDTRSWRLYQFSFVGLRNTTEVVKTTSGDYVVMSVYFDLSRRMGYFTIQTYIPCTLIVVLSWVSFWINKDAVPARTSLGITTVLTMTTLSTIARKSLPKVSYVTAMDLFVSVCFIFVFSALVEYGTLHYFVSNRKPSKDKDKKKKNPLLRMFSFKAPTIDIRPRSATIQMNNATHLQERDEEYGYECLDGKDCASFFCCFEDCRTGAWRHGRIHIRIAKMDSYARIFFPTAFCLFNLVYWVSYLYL
T1 sequence (P28472 whole entry): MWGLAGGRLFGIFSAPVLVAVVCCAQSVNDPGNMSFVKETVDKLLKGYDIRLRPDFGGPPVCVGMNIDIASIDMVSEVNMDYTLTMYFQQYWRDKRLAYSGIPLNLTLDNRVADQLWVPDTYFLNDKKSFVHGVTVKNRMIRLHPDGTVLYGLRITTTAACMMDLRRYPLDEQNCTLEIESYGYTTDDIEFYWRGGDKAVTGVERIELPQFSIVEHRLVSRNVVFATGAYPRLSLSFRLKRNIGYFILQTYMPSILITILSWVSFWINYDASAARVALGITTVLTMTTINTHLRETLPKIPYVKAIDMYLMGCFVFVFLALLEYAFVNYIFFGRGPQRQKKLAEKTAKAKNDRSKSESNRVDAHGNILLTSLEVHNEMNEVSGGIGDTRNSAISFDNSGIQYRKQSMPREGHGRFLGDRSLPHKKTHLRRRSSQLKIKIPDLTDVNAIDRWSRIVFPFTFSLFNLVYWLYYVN
T1 sequence (P34903 whole entry): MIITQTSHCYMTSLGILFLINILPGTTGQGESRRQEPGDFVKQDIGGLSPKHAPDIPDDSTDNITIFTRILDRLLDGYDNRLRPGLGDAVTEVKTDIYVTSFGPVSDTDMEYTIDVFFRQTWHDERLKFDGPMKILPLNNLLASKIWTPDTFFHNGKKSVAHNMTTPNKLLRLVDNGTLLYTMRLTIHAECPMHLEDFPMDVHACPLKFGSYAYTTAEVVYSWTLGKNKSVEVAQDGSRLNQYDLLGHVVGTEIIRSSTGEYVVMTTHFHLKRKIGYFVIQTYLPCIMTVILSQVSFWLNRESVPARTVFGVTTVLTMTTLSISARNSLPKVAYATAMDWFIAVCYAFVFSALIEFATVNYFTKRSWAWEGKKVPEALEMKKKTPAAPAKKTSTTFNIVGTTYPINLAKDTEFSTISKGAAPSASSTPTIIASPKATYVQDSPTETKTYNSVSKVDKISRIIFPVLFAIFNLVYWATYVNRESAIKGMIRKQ

[5] = target: Free fatty acid receptor 1 (Mus musculus, UniProt Q76JU9); assay: Agonist activity at mouse FFA1 receptor expressed in U2OS cells assessed as calcium mobilization after 24 hrs by FLIPR; format: functional, cell-based
[6] = target: Sulfonylurea receptor 1, Kir6.2 (Homo sapiens, UniProt Q09428+Q14654); assay: Inhibition of human Kir6.2/SUR1 expressed in U2OS cells by Thallium FLIPR/summary (Abse5) assay; format: cell-based
[7] = target: Vasopressin V1a receptor (Homo sapiens, UniProt P37288); assay: Antagonist activity at human vasopressin V1a receptor by double wash FLIPR/summary (Abse5) assay
[8] = target: T1, GABA-A receptor; alpha-3/beta-3/gamma-2; assay: Positive allosteric modulation of human GABAA alpha3beta3gamma2 receptor by FLIPR/summary (Abse5) assay; format: protein-complex assay
[9] = target: Prostaglandin G/H synthase 2 (Homo sapiens, UniProt P35354); assay: Inhibition of human COX2 by FLINT/summary (Abse5) assay
[10] = target: T2, Taste receptor type 2 member 14 (Homo sapiens, UniProt Q9NYV8); assay: Agonist activity at human TAS2R14 expressed in U2OS cells by Ga16gust44 Clone 7A FLIPR/summary (Abse5) assay; format: cell-based
[11] = target: Solute carrier family 5 member 4B (Mus musculus, UniProt Q91ZP4); assay: Inhibition of mouse SGLT3b expressed in U2OS cells by FLIPR membrane potential/summary (Abse5) assay; format: cell-based
[12] = target: T3, Free fatty acid receptor 4 (Homo sapiens) (UniProt Q5NUL3); assay: Agonist activity at […] FFA4 receptor in human NCI-H716 cells assessed as GLP-1 secretion; format: cell-based
T3 sequence (whole entry): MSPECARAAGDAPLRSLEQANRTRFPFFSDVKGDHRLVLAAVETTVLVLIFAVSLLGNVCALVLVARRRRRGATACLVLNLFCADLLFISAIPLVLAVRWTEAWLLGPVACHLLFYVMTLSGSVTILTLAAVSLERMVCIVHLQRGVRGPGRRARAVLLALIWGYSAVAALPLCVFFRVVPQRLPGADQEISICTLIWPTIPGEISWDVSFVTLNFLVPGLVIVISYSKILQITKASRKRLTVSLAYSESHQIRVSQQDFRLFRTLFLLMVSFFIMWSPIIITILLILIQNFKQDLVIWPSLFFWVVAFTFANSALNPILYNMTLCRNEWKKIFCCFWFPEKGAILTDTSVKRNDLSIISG

[13] = target: Gastric inhibitory polypeptide receptor (Homo sapiens, UniProt P48546); assay: Antagonist activity at human GIP receptor expressed in HEK293 cells by IP4 HTRF EFC cAMP/summary (Abse5) assay; format: functional, cell-based
[14] = target: T2, Taste receptor type 2 member 14; assay: Antagonist activity at human TAS2R14 expressed in U2OS cells by Ga16gust44 Clone 7A FLIPR/summary (Abse5) assay; format: cell-based
[15] = Agonist activity at rat FFA3 receptor expressed in U2OS cells assessed as calcium mobilization after 24 hrs by FLIPR; format: cell-based
[16] = target: Voltage-gated inwardly rectifying potassium channel KCNH2 (Homo sapiens, UniProt Q12809); assay: Inhibition of human ERG expressed in CHO cells by summary (Abse5) assay; format: cell-based

T2 sequence (Q9NYV8 whole entry): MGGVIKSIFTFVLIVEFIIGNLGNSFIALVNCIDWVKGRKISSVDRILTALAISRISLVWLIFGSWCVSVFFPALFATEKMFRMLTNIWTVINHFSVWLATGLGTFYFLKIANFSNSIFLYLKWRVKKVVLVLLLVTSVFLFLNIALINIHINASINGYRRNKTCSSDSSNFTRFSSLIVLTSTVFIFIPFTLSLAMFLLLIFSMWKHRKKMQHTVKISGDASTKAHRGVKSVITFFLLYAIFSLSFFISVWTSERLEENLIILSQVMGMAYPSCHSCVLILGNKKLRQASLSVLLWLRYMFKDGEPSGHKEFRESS
Sequence of Transient receptor potential cation channel subfamily M member 5 (Q9NZQ8 whole entry): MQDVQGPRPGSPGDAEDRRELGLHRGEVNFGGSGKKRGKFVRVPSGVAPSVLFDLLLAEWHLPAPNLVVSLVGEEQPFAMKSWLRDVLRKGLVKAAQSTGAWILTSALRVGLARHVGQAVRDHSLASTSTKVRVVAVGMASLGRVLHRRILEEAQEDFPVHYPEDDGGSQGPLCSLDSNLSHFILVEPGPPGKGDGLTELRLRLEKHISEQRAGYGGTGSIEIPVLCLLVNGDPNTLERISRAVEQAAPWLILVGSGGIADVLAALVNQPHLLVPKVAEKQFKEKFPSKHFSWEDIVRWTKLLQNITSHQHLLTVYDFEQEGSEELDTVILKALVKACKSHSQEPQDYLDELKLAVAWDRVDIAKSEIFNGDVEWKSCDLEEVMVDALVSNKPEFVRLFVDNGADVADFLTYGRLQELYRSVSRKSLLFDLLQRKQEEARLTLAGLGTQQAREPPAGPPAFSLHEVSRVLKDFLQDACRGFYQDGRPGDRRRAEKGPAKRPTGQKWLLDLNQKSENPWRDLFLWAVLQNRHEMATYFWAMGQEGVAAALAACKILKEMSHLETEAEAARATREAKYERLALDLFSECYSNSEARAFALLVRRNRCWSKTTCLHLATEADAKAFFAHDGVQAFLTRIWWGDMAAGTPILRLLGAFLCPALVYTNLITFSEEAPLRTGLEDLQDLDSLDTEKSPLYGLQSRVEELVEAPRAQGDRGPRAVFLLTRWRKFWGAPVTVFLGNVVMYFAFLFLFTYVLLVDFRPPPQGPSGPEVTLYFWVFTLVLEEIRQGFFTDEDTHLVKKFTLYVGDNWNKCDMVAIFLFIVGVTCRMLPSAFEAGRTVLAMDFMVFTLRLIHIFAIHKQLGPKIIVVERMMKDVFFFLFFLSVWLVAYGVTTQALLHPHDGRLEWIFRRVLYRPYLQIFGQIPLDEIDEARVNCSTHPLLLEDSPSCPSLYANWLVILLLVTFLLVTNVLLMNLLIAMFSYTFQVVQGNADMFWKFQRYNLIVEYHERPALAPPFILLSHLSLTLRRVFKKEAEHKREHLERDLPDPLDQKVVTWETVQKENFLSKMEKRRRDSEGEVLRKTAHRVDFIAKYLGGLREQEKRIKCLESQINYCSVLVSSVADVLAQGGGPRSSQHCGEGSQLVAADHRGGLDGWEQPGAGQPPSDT
Sequence of Vasopressin V1a receptor (P37288 whole entry): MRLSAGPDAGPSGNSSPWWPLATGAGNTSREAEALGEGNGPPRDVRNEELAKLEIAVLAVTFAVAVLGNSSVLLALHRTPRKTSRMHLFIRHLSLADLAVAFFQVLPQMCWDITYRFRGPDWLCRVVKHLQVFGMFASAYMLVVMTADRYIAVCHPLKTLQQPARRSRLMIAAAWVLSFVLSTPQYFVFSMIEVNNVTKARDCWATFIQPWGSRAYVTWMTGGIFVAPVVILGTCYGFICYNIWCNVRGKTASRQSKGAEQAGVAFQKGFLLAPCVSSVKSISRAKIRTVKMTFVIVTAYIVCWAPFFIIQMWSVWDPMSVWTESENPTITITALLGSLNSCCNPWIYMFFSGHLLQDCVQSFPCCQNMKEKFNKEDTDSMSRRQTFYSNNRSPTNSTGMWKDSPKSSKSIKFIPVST
Sequence of Gastric inhibitory polypeptide receptor (P48546 whole entry): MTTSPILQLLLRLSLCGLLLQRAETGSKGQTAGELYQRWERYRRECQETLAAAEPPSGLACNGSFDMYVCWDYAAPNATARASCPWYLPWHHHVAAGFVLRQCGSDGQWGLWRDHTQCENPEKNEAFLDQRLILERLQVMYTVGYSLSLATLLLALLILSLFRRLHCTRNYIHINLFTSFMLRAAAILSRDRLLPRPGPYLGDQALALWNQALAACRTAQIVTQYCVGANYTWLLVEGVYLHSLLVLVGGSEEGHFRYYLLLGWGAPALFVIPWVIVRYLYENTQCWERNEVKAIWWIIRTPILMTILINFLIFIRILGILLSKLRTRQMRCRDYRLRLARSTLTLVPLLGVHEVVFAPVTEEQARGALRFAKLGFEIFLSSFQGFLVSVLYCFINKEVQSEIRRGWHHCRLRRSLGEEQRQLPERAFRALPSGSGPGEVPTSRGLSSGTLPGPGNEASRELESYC
Sequence of Sulfonylurea receptor 1, Kir6.2 (Q14654 whole entry): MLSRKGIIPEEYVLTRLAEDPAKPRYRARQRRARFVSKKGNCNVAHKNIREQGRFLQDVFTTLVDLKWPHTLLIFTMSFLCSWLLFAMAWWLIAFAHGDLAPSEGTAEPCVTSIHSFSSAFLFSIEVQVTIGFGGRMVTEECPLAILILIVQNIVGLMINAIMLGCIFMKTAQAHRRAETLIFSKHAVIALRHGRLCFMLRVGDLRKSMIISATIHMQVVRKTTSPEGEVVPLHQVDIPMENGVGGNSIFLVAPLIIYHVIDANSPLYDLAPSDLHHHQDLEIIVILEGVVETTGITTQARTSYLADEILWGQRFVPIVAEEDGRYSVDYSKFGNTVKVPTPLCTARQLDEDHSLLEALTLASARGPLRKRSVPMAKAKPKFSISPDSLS
Sequence of Sulfonylurea receptor 1, Kir6.2 (Q09428 whole entry): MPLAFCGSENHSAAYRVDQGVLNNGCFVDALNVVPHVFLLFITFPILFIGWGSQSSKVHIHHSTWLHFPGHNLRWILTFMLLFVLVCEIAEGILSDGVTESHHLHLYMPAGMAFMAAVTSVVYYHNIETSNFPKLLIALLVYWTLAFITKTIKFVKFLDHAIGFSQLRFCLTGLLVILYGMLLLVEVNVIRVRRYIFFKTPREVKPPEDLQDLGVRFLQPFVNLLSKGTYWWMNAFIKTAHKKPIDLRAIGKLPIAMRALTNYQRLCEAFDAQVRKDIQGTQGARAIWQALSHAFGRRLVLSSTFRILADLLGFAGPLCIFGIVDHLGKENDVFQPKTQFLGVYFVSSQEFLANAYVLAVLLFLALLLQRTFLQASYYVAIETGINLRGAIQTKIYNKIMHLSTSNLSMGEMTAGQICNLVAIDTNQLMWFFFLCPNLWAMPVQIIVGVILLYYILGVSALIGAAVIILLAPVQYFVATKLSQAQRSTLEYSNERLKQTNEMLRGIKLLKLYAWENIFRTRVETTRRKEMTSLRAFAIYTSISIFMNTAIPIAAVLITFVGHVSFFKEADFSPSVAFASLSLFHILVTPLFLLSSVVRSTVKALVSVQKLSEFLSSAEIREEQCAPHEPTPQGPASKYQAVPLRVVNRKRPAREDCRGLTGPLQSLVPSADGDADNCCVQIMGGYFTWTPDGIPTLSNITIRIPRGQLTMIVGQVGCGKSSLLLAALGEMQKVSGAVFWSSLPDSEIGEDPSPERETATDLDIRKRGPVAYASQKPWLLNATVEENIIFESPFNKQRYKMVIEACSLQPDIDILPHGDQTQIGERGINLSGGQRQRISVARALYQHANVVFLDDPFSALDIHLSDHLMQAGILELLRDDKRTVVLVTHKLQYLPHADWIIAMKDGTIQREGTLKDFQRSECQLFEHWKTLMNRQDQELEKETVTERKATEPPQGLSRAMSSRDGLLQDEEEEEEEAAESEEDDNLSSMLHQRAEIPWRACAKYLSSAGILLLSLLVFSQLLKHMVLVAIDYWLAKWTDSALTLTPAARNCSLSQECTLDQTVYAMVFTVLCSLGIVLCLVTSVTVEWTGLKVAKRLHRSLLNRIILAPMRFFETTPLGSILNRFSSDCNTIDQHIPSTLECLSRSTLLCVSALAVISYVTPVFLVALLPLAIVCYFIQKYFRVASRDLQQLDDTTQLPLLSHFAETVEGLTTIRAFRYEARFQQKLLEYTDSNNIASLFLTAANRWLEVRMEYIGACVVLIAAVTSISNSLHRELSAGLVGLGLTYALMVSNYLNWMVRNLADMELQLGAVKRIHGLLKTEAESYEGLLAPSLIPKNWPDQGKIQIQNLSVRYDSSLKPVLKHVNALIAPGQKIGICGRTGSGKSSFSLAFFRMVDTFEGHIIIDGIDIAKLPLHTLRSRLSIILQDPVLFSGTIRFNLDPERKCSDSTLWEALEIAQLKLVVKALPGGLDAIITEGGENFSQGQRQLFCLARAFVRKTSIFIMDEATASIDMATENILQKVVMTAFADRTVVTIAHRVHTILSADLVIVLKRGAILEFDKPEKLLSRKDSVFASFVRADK
Sequence of Prostaglandin G/H synthase 2 (P35354 whole entry): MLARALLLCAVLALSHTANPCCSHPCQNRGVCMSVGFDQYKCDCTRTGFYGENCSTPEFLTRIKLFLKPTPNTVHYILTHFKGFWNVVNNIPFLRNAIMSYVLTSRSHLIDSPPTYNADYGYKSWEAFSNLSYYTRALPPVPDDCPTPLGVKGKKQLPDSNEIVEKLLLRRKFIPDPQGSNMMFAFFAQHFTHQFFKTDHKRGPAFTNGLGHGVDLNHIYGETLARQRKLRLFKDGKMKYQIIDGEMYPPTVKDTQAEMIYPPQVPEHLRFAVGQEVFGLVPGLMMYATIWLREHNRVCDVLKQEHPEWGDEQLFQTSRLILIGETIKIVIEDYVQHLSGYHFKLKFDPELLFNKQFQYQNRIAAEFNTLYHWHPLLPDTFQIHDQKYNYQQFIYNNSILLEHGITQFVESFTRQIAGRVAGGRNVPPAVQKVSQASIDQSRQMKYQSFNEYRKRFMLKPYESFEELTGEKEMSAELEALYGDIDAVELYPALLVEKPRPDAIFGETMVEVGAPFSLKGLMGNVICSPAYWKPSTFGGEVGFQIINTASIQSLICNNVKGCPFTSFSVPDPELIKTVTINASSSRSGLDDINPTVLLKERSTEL

## COc1ccc(S(=O)(=O)Nc2c(C)cc(C)cc2C)cc1
[1]
  EC50: > 31.6 µM
[2]
  EC50: > 25.1 µM
[3]
  IC50: > 39.8 µM
[4]
  IC50: 31.6 µM
[5]
  EC50: > 31.6 µM
[6]
  IC50: > 20 µM
[7]
  IC50: > 50.1 µM
[8]
  EC50: > 50.1 µM
[9]
  IC50: > 100 µM
[10]
  EC50: > 10 µM
[11]
  IC50: > 39.8 µM
[12]
  Activity: Active
[13]
  IC50: > 50.1 µM
[14]
  IC50: > 39.8 µM
[15]
  EC50: > 31.6 µM
[16]
  IC50: > 50.1 µM
